# Test results published in patent publication US10478574B2, “Nasal administration” (OptiNose AS, priority 2006, dated 2019).
# Key:
# [1] = Blood plasma pharmacokinetics of midazolam for three administration systems (Example #1); conditions: for Cl (obs) / Vz (obs): not corrected for bio-availability; for bio-availability: mean (95% CI); for AUC(0-t): AUClast
# Experimental: In this study, twelve healthy subjects, 4 male and 8 female, were studied.
# In separate sessions, the subjects received 3.4 mg of midazolam by one of three different administration systems, these being: • (i) an intravenous administration system in which a midazolam formulation was intravenously administered; • (ii) a conventional nasal spray administration system in which a midazolam formulation was conventionally nasally administered using a spray pump as supplied by Ing Erich Pfeiffer GmbH (Radolfsee, Germany) which is specified to generate a liquid spray with a mean particle size of 43 μm, with 100 μl of the formulation being delivered to each nostril; and • (iii) the bi-directional administration system of the first-described embodiment, and incorporating the same spray pump as the conventional nasal spray administration system, in which a midazolam formulation was nasally administered, with 100 μl of the formulation being delivered to each nostril.
# Each study session was six hours in duration, and the sessions were separated by at least one week.
# The intravenous formulation was a commercial midazolam HCl formulation (1 mg/ml (free base)) as supplied by Alpharma Inc (New Jersey, USA).
# The nasal formulation was an aqueous solution containing midazolam base (1.7% w/v), sulfobutylether-β-cyclodextrin sodium salt with a molar substitution of 6.2 (Captisol®) (14% w/v) as supplied by CyDex Inc (Kansas, USA), hydroxypropyl methylcellulose (0.1% w/v), benzalkonium chloride (0.02% w/v), ethylene diaminetetraacetic acid (0.1% w/v) and phosphoric acid (0.73% w/v). The pH of the formulation was adjusted to a pH of between 4.20 and 4.35 with sodium hydroxide.
# Venous blood samples, each having a volume of 9 ml, were drawn just prior to administration and at 2, 5, 10, 15, 20, 25, 30, 35, 45, 60, 90, 120, 240 and 360 minutes after administration, in order to allow for a determination of the blood plasma concentration of midazolam.
# The blood plasma concentration of midazolam was determined according to Martens et al.
# Samples, spiked with diazepam as an internal standard, were alkalised and extracted by toluene containing 0.1% w/v amyl alcohol. The resulting organic phase for each of the samples was then evaporated and the residue for each of the samples was derivatized with TBDMSTFA (/tert/-Butyldimethylsilyl)-N-methyltrifluoroacetamide with 1% w/v tert-butyldimethylsilyllchloride) at 60 °C. After the excess of TBDMSTFA was evaporated, the residue for each of the samples was dissolved in ethyl acetate and analyzed in a gas chromatograph, in this embodiment an HP 5890 gas chromatograph equipped with an HP 5972 mass-spectrometry detector as supplied by Hewlett Packard Inc (USA). The midazolam and diazepam components were quantified by the mass ions 310 and 256, respectively.
# In this study, the midazolam clearance, the volume of distribution, the elimination rate, the maximum plasma concentration Cmax, the time maximum plasma concentration Tmax, and the area under the curve AUC (linear trapezoidal rule) were calculated by computerized curve fitting using the Win-Nonlin Standard 4.1 as supplied by Pharsight Corporation (California, USA). The systemic clearance (Cl)=dose/AUCiv, the apparent nasal clearances (Cln)=dose/AUCn, and the respective bioavailabilities (Fx)=(AUCx/dosey)/(AUCy/dosex) were determined from the calculated values.
# In the results, the data is given as a median (min-max) or a mean (95% confidence interval (CI)). Regression analysis and ANOVA were used as appropriate. A bi-variate correlation (Pearson) was used to determine associations between variables. A paired sample t-test was used for group comparisons.
# [2] = Subjective sedation score on numeric rating scale (NRS) 0-10 after midazolam (Example #1); assay type: in vivo, human
# Experimental: Subjective sedation was scored by a numeric rating scale (NRS) 0-10, where 0 is fully awake and 10 is falling asleep or as tired as you can imagine at 0, 2, 5, 10, 15, 20, 25, 30, 35, 45, 60, 90, 120 and 360 minutes after administration.
# [3] = bi-directional nasal administration system, 3.4 mg, mean
# [4] = both, human, plasma, inhaled or intranasal, 3.4 mg, bi-directional nasal administration system, mean
# [5] = both, human, plasma, inhaled or intranasal, 3.4 mg, conventional nasal spray administration system, mean
# [6] = both, human, plasma, iv, 3.4 mg
# [7] = both, human, plasma, iv, 3.4 mg, intravenous administration system, mean
# [8] = conventional nasal spray administration system, 3.4 mg, mean
structure (smiles),measurement,setting,value
Cc1ncc2n1-c1ccc(Cl)cc1C(c1ccccc1F)=NC2 [midazolam],AUCinf,[1]; [3],5364 ng·min/mL
same,Cl (obs),[1]; [3],589 mL/min
same,Vz (obs),[1]; [3],98551 mL
same,bio-availability,[1]; bi-directional spray administration system vs intravenous,"0.69 (0.57, 0.81)"
same,AUC(0-inf),"[1]; both, human, plasma, inhaled or intranasal, 3.4 mg",87.8 ng·h/mL
same,AUC(0-t),[1]; [4],76.9 ng·h/mL
same,AUC(0-t),[1]; [5],77.1 ng·h/mL
same,Cmax,[1]; [4],44 ng/mL
same,Cmax,[1]; [5],53 ng/mL
same,half-life,"[1]; both, human, plasma, inhaled or intranasal, 3.4 mg, T1/2, bi-directional nasal administration system, mean",1.98 h
same,half-life,"[1]; both, human, plasma, inhaled or intranasal, 3.4 mg, T1/2, conventional nasal spray administration system, mean",1.9 h
same,Tmax,[1]; [4],0.267 h
same,Tmax,[1]; [5],0.25 h
same,AUC(0-inf),[1]; [6],136 ng·h/mL
same,Vd,[1]; [6],65.4 L
same,clearance,[1]; [6],451 mL/min
same,AUC(0-t),[1]; [7],122 ng·h/mL
same,Cmax,[1]; [7],152 ng/mL
same,half-life,"[1]; both, human, plasma, iv, 3.4 mg, T1/2, intravenous administration system, mean",1.73 h
same,Tmax,[1]; [7],0.0417 h
same,Cl (obs),[1]; [8],551 mL/min
same,Vz (obs),[1]; [8],90691 mL
same,bio-availability,[1]; conventional spray administration system vs intravenous,"0.68 (037, 0.80)"
same,CNS effect (sedation score as a function of blood plasma concentration),[2]; bi-directional administration system compared with conventional nasal spray,substantially greater CNS effect than the conventional nasal spray administration system
same,sedation scores,"[2]; bi-directional administration system compared with intravenous, 3.4 mg, median NRS",equivalent to those of the intravenous administration system
same,onset of action,"[2]; bi-directional administration system compared with the other systems, 3.4 mg",considerably faster than the conventional nasal spray administration system
same,ratio of peak CNS effect to Cmax relative to intravenous administration,"[2]; bi-directional administration system, 3.4 mg",about 3.5 times
